The source of these data is patent US20070297980A1, “Geldanamycin and Derivatives Inhibit Cancer Invasion and Identify Novel Targets” (priority 2004, published 2007).

Data set [1] concerns HGF/SF-induced Matrigel invasion by SNB19 cells. Put plainly: In vitro Matrigel invasion assay, SNB19. It counts as cell-based, human. Particulars: even at pM-fM concentrations. On the procedure: (§1) In Vitro Cell Invasion Assay. The in vitro invasion assay was performed as previously described by Jeffers et al., 1996, using a 24-well invasion chamber coated with GFR-Matrigel® (Becton Dickinson). Cells were suspended in DMEM/0.1% BSA and were plated in the invasion (upper) chamber (5−25×10^3 cells/well) (DBTRG 5,000, SNB19 and U373 25,000 cells/well). The lower chamber was filled with DMEM/0.1% BSA with or without the addition of HGF/SF (100 ng/ml). To evaluate GA inhibition, GA was serially diluted into both the upper and lower chambers at final concentrations 1 μM, to 1 fM as indicated and immediately after HGF/SF addition. After 24 h, cells remaining in the upper chamber were removed by scraping. The cells that invaded through the Matrigel® and attached to the lower surface of the insert were stained using Diff-Quik (Dade Behring Inc.) and counted under a light microscope.

For data set [2], the system named is Met expression. Put plainly: Western blot, Met expression. It counts as cell-based. Also noted: effect on Met expression: dose or concentration left out as unconfirmed. Particulars: for Met abundance upon acute challenge: 24 hrs, MDCKG1-G3 cells chronically exposed to MA; for effect on Met expression: MDCK and DBTRG cells. On the procedure: (§2) Western Blot and Expression of Met and other Proteins. Cells were seeded in 60×15 mm dishes at 10^5 cells per dish. HGF/SF (100 ng/ml) was added to each dish 24 hr later. Immediately thereafter, serially diluted GA or MA was added to the relevant dishes at the concentrations indicated, and incubated for the indicated length of time before lysis. For Met and MAPK phosphorylation detection, 10^5 cells were seeded in 60×15 mm dishes and serum-starved for 24 hrs. After HGF/SF (100 ng/ml) stimulation, cells were lysed at 10 and 30 min. Control cells were not given HGF/SF. After cell lysis, protein concentration was determined by DC protein assay (Bio-Rad), and equal quantities of protein were loaded and separated by SDS-PAGE and transferred in a Western blot to PVDF membranes (Invitrogen). After blocking with 5% dry milk, membranes were blotted with specific antibodies.
After cells grew to 80% confluence, GA or MA, at various concentrations was added to the dishes. After 24 hours, cells were washed twice with PBS and lysed in TNESV buffer supplemented with Complete™ proteinase inhibitors (Roche Molecular Biochemicals). Protein concentration was determined by DC protein assay. Equal quantities of protein were used for Western blotting for Met and HSP90α. For pull-down assays, 20 μl of control or GA beads adjusted for equal concentrations were added to […] of extract and rotated at 4° C. overnight. Beads were recovered by low speed centrifugation and washed 3× with TNESV. Sixty μl 2× sample buffer was added to beads and boiled for 10 min. The samples were subjected to SDS-PAGE followed by Western blot analysis.

In data set [3] the test system is HGF/SF-induced uPA-plasmin activity in MDCK cells. Put plainly: HGF/SF-Met-uPA-plasmin cell-based assay, MDCK cells. Particulars: for concentration level at which HGF/SF-induced uPA activity is inhibited: words. Also on record: species or system canine.
Procedure: Cells were seeded in 96-well plates at 1500 cells/well (with the exception of SK-LMS-1 cells, which were seeded at 5000 cells/well) in order to detect color intensity, either with MTS (Promega) for cell growth determination or via Chromozyme PL (Boehringer Mannheim) for uPA-plasmin activity measurement. Cells were grown overnight in DMEM/10% FBS as described previously. Drugs were dissolved in DMSO and serially diluted from stock concentrations into DMEM/10% FBS medium and added to the appropriate wells. Immediately after drug or reagent addition, HGF/SF (60 ng/ml) was added to all wells (with the exception of wells used as controls to calculate basal growth and uPA-plasmin activity levels). Twenty-four hours after drug and HGF/SF addition, plates were processed for the determination of uPA-plasmin activity as follows: Wells were washed twice with DMEM (without phenol red; Life Technologies, Inc.), and 200 μl of reaction buffer [50% (v/v) 0.05 units/ml plasminogen in DMEM (without phenol red), 40% (v/v) 50 mM Tris buffer (pH 8.2), and 10% (v/v) 3 mM Chromozyme PL (Boehringer Mannheim) in 100 mM glycine solution] were added to each well.
In data set [4] the test system is HGF/SF-induced Matrigel invasion by DBTRG cells. Put plainly: In vitro Matrigel invasion assay, DBTRG. It counts as cell-based, human. Particulars: even at pM-fM concentrations. As to the method:
as §1

Data set [5] deals with HGF/SF-induced Matrigel invasion by U373 cells. Put plainly: In vitro Matrigel invasion assay, U373. It counts as cell-based, human. Particulars: even at pM-fM concentrations. On the procedure: as §1
In data set [6] the test system is HGF/SF-induced cell scattering in MDCKG3 cells. Put plainly: Scatter assay, MDCKG3 cells (maintained in MA). Particulars: MDCKG3 cells maintained in 3×10^−6 M MA; GA tested 10^−7 to 10^−15 M. The format is cell-based, canine. On the procedure: (§3) Scatter Assay. In parallel with assessing uPA activity, 96-well plates of MDCK cells were used to detect cell scattering. Cell preparation was same as above (plasmin assay) described above. At the same time as uPA activity was measured, the cells being assayed for scatter were fixed, stained (Diff-Quik Set, Dade Behring AG) and photographed.

The conditions of data set [7]: preliminary reports; Neckers et al; Sausville et al; cited from earlier work.
Data set [8] relates to HGF/SF-induced MDCK cell scattering. Put plainly: Scatter assay, MDCK cells. It counts as cell-based, canine. As to the method: as §3
Data set [9] concerns HGF/SF-induced uPA activity in U373 cells. Put plainly: HGF/SF-Met-uPA-plasmin cell-based assay, U373 cells. Also on record: species or system human.
Procedure: (§4) HGF/SF-Met-uPA-Plasmin Cell-Based Assay (Webb et al., supra). Cells were seeded in 96-well plates at 1500 cells/well (with the exception of SK-LMS-1 cells, which were seeded at 5000 cells/well) in order to detect color intensity, either with MTS (Promega) for cell growth determination or via Chromozyme PL (Boehringer Mannheim) for uPA-plasmin activity measurement. Cells were grown overnight in DMEM/10% FBS as described previously. Drugs were dissolved in DMSO and serially diluted from stock concentrations into DMEM/10% FBS medium and added to the appropriate wells. Immediately after drug or reagent addition, HGF/SF (60 ng/ml) was added to all wells (with the exception of wells used as controls to calculate basal growth and uPA-plasmin activity levels). Twenty-four hours after drug and HGF/SF addition, plates were processed for the determination of uPA-plasmin activity as follows: Wells were washed twice with DMEM (without phenol red; Life Technologies, Inc.), and 200 μl of reaction buffer [50% (v/v) 0.05 units/ml plasminogen in DMEM (without phenol red), 40% (v/v) 50 mM Tris buffer (pH 8.2), and 10% (v/v) 3 mM Chromozyme PL (Boehringer Mannheim) in 100 mM glycine solution] were added to each well. […]
For data set [10] the following is noted: Egorin M J et al., 2002; cited from earlier work.
Data set [11] concerns HSP90α expression. Put plainly: Western blot, HSP90α expression. It counts as cell-based. Particulars: MDCK and DBTRG cells. On the procedure: as §2
After cells grew to 80% confluence, GA or MA, at various concentrations was added to the dishes. After 24 hours, cells were washed twice with PBS and lysed in TNESV buffer supplemented with Complete™ proteinase inhibitors (Roche Molecular Biochemicals). Protein concentration was determined by DC protein assay. Equal quantities of protein were used for Western blotting for Met and HSP90α. […]

Data set [12] concerns HSP90α. Put plainly: GA-affinity bead pull-down (solid-phase binding assay). Particulars: MDCK and DBTRG lysates.
Data set [13] relates to cell proliferation (DBTRG, U373, SNB19 cells). Put plainly: Proliferation assay (MTS). The format is cell-based, human. Particulars: cell line not stated. On the procedure: Proliferation Assay. In parallel with uPA-plasmin detection assay, cell proliferation in 96-well plates was detected with MTS. […] The plates were then incubated at 37° C., in a 5% CO2 atmosphere for 4 h. The absorbance was read on an automated spectrophotometric plate reader at 490 nm.

Data set [14] deals with MDCK cells. Put plainly: Long-term culture of MDCK cells in macbecin II. It counts as cell-based, canine.
Procedure: All compounds were first diluted in DMSO at 0.01M, separated into small stock aliquots (5 μl) and kept at −80° C. until use. When used, stocks were thawed and serially diluted with DMEM/10% FBS. For long term culture with MA, conditioned medium with the compound at 1, 2, or 3×10^−6 M was changed at least twice a week.
Data set [15] relates to uPA activity in U118 cells. Put plainly: HGF/SF induction of uPA activity, U118 cells. The format is cell-based, human. Particulars: peak uPA induction after HGF/SF to basal.
Procedure: as §4
For data set [16], the system named is uPA activity in SW1874 cells. Put plainly: HGF/SF induction of uPA activity, SW1874 cells. It counts as cell-based, human. Particulars: peak uPA induction after HGF/SF to basal.
Procedure: (§5) Cells were seeded in 96-well plates at 1500 cells/well (with the exception of SK-LMS-1 cells, which were seeded at 5000 cells/well) in order to detect color intensity, either with MTS (Promega) for cell growth determination or via Chromozyme PL (Boehringer Mannheim) for uPA-plasmin activity measurement. Cells were grown overnight in DMEM/10% FBS as described previously. Drugs were dissolved in DMSO and serially diluted from stock concentrations into DMEM/10% FBS medium and added to the appropriate wells. Immediately after drug or reagent addition, HGF/SF (60 ng/ml) was added to all wells (with the exception of wells used as controls to calculate basal growth and uPA-plasmin activity levels). Twenty-four hours after drug and HGF/SF addition, plates were processed for the determination of uPA-plasmin activity as follows: Wells were washed twice with DMEM (without phenol red; Life Technologies, Inc.), and 200 μl of reaction buffer [50% (v/v) 0.05 units/ml plasminogen in DMEM (without phenol red), 40% (v/v) 50 mM Tris buffer (pH 8.2), and 10% (v/v) 3 mM Chromozyme PL (Boehringer Mannheim) in 100 mM glycine solution] were added to each well. […]
Data set [17] relates to uPA activity in PC-3 cells. Put plainly: HGF/SF induction of uPA activity, PC-3 cells. Particulars: peak uPA induction after HGF/SF to basal. The format is cell-based, human.
Procedure: as §4
Data set [18] concerns uPA activity in SNB19 cells. Put plainly: HGF/SF induction of uPA activity, SNB19 cells. It counts as cell-based, human. Particulars: peak uPA induction after HGF/SF to basal.
Procedure: as §4
For data set [19], the system named is uPA activity in U87 cells. Put plainly: HGF/SF induction of uPA activity, U87 cells. It counts as cell-based, human. Particulars: peak uPA induction after HGF/SF to basal.
Procedure: as §5
In data set [20] the test system is uPA activity in DBTRG cells. Put plainly: HGF/SF induction of uPA activity, DBTRG cells. It counts as cell-based, human. Particulars: peak uPA induction after HGF/SF to basal.
Procedure: as §4
Data set [21] concerns uPA activity in SK-LMS-1 cells. Put plainly: HGF/SF induction of uPA activity, SK-LMS-1 cells. It counts as cell-based, human. Particulars: peak uPA induction after HGF/SF to basal.
Procedure: as §5
In data set [22] the test system is uPA activity in DU145 cells. Put plainly: HGF/SF induction of uPA activity, DU145 cells. It counts as cell-based, human. Particulars: peak uPA induction after HGF/SF to basal.
Procedure: as §5

Entries after “also recorded” stand apart in the source; their conditions may differ.

With `COC1=C2C[C@@H](C)C[C@H](OC)[C@H](O)[C@@H](C)/C=C(\C)[C@H](OC(N)=O)[C@@H](OC)/C=C\C=C(/C)C(=O)NC(=CC1=O)C2=O` [Compound 1, (+)-Geldanamycin], the “effect on HGF/SF-induced Matrigel invasion” value in data set [1], in data set [4] and in [5] was “abolished” in each case. Moreover, the “Met abundance upon acute challenge” value in [2] (10^−6 M GA) was “dramatic decreases”. For the same compound, the “effect on Met expression” value in data set [2] (GA at nM levels) is recorded as “downregulates”. In addition, in data set [3] (MDCK cells), the “activity in HGF/SF-induced uPA-plasmin cell-based assays (words)” value (from here on “activity … (words)”) is given as “active”. Further, the “GA concentration at which scattering was again fully observed” value in data set [6] is listed as 10^−15 M.
Turning to `CO[C@H]1[C@@H](OC)C[C@H](C)[C@@H](OC)C2=CC(=O)C=C(NC(=O)/C(C)=C/C=C\[C@H](C)[C@@H](OC(N)=O)/C(C)=C/[C@@H]1C)C2=O` [Compound 2, Macbecin I, reference compound], the “activity … (words)” value was “inactive” in data set [3] (MDCK cells) and “poor activity” in data set [3] (MDCK cells, listed as macbecin I).
As for `C[C@@H]1C[C@H]2O[C@@H]2/C=C\C=C\C(=O)Cc2c(Cl)c(O)cc(O)c2C(=O)O1` [Compound 3, Radicicol, reference compound], the “activity … (words)” value in [3] (MDCK cells) is “poor activity; also recorded: inactive”. Also, the “concentration level at which HGF/SF-induced uPA activity is inhibited” value in [3] is “only at nanomolar levels”; in data set [3] (listed as RA) it was “only at nM or higher concentrations”.
As for `C=CCNC1=C2C[C@@H](C)C[C@H](OC)[C@H](O)[C@@H](C)/C=C(\C)[C@H](OC(N)=O)[C@@H](OC)/C=C\C=C(/C)C(=O)NC(=CC1=O)C2=O` [Compound 4, 17-Allylamino-17-demethoxygeldanamycin], the “hepatic toxicity in clinical investigations” value in [7] was “dose-limiting”. For the same compound, the “concentration range inhibiting HGF/SF-induced MDCK cell scattering” value in data set [8] (FIG. 10) is reported as “pM to fM range”. Moreover, in data set [3] (MDCK cells), the “lowest concentration at which inhibitory effects on uPA activity observed” value was 10^−17 M and the “activity … (words)” value is “active”. Moreover, the “lowest concentration at which inhibitory effects on uPA activity observed” value in data set [9] (U373 cells) is recorded as 10^−17 M.
As for `COC1/C=C\C=C(/C)C(=O)NC2=CC(=O)C(NCCN(C)C)=C(C[C@@H](C)C[C@H](OC)[C@H](O)[C@@H](C)/C=C(\C)[C@@H]1OC(N)=O)C2=O` (some centres unmarked) [Compound 5, 17-(2-Dimethylaminoethyl)amino-17-demethoxygeldanamycin], the “quantity not named in the sentence ("was essentially 100% when given i.p.")” value in data set [10] is on record as approximately 100%.
As for `CO[C@H]1/C=C\C=C(/C)C(=O)NC2=CC(=O)C(N3CCC3)=C(C[C@@H](C)C[C@H](OC)[C@H](O)[C@@H](C)/C=C(\C)[C@@H]1OC(N)=O)C2=O` [Compound 14, 17-(1-Azetidinyl)-17-demethoxygeldanamycin], the “activity … (words)” value in data set [3] (MDCK cells) was “active”.
With `CO[C@H]1/C=C\C=C(/C)C(=O)NC2=CC(=O)C(N3CCC3)=C(C[C@@H](C)C[C@H](OC)[C@H](OC(C)=O)[C@@H](C)/C=C(\C)[C@@H]1OC(N)=O)C2=O` [Compound 18, 11-O-Acetyl-17-(1-azetidinyl)-17-demethoxygeldanamycin], the “activity … (words)” value in [3] (MDCK cells) was “inactive”.
Consider `CO[C@H]1/C=C\C=C(/C)C(=O)NC2=CC(=O)C(N3CCC3)=C(C[C@@H](C)C[C@H](OC)[C@H](O)[C@@H](C)/C=C(\C)[C@@H]1O)C2=O` [Compound 19, 17-(1-Azetidinyl)-7-decarbamyl-17-demethoxygeldanamycin], for which, in data set [3] (MDCK cells), the “activity … (words)” value is “completely inactive”.
Still for that read-out and setting: to `COc1c(O)cc2c(O)c1C[C@@H](C)C[C@H](OC)[C@H](O)[C@@H](C)/C=C(\C)[C@H](OC(N)=O)[C@@H](OC)/C=C\C=C(/C)C(=O)N2` [Compound 20, 17,21-Dihydrogeldanamycin] belongs “active”.
On to `COC1CC(C)C(OC)c2cc(O)cc(c2O)NC(=O)/C(C)=C\C=C/C(C)C(OC(N)=O)/C(C)=C\C(C)C1OC` (centres unmarked) [Compound 21, Macbecin II, reference compound], for which the “effect on HSP90α expression” value in data set [11] is “up-regulation”. In data set [12] (cells treated with 10^−5 M MA), the “total HSP90α recovered with GA-affinity beads” value is “negligible levels”. The “HSP90α available to the GA affinity beads” value in data set [12] (cells treated with 10^−6 M MA) is “reduced”. Moreover, the “concentration level at which proliferation is inhibited” value in data set [13] is given as “nM levels”. In data set [14] (MDCK cells maintained for several months), this compound gave a highest non-toxic concentration of 3 µM. Also, the “MA concentration up to which MDCK cells continued to proliferate” value in [14] (long-term culture) is not above 3 µM. Moreover, in data set [8] (3×10^−6 M MA), the “effect on HGF/SF-induced scattering of MDCK cells” value is “effectively blocked”. For the same compound, the “Met abundance upon acute challenge” value in data set [2] (10^−5 M MA) is on record as “less of a decrease”. Further, the “effect on Met expression” value in data set [2] (at MA) was “downregulation”. The “activity … (words)” value in data set [3] (MDCK cells) is “inactive”; in data set [3] (MDCK cells, listed as macbecin II), “poor activity”. Besides, in [3], the “concentration level at which HGF/SF-induced uPA activity is inhibited” value was “only at nM or higher concentrations”.
Regarding “HGF/SF: hepatocyte growth factor/scatter factor, ligand of the Met receptor tyrosine kinase”, the “uPA activity induction (fold)” value in [15] came out at 1.12 fold; in [16] it was 0.97 fold; in [3] (MDCK, peak uPA induction after HGF/SF (0-60 ng/ml, 24 h) to basal), 4.27 fold; in [17], 1.00 fold; in data set [18] it was 1.95 fold; in data set [19], 1.04 fold. Moreover, the “uPA activity induction (fold)” value in [20] is on record as 2.28 fold; in data set [21] it was 2.01 fold; in data set [22], 1.06 fold; in [9] (U373, peak uPA induction after HGF/SF to basal), 1.56 fold.
